Read-outs that look alike come from different tables or passages of the source. Numbered stars: 1 amine (or outer) side, 2 acyl side, 3 side chain; on linkers, the order of the positions; unused ones are H or OH. Square brackets hold non-standard residues; d marks the D form. Peptide text beside a SMILES is read from it. * marks the point of attachment. X14 = NCC(=O)N[C@@H]1C[C@@H](C(=O)[*:2])N([*:1])C1; X7 = N[C@@H]1CCN([*:1])[C@@H]1C(=O)[*:2]; Phe(4-F) = N[C@@H](Cc1ccc(F)cc1)C(=O)O; Pro(4R-NH2) = N[C@H]1CN[C@H](C(=O)O)C1; X9 = CN(C)CC[C@@H](N[*:1])C(=O)[*:2]; dOrn(Me2) = CN(C)CCC[C@@H](N)C(=O)O; X2 = O=C([C@H]1CCCN([*:1])C1)[*:2]; Hyp = O=C(O)[C@@H]1C[C@@H](O)CN1; NHcycloheptyl = C1CCCC(N*)CC1; NMeL = CN[C@@H](CC(C)C)C(=O)O; dOrn = NCCC[C@@H](N)C(=O)O; Octanoyl = CCCCCCCC(=O)*; Api = NC1(C(=O)O)CCNCC1
Biological target: T1, NPR-B (Homo sapiens, UniProt P20594)
T1 construct: a functional assay using endogenously NPR-B expressing GTM-3 cells; endogenous in cells; host or cells: GTM-3 (human glaucoma trabecular meshwork cells)
T1 sequence (P20594 23-1047): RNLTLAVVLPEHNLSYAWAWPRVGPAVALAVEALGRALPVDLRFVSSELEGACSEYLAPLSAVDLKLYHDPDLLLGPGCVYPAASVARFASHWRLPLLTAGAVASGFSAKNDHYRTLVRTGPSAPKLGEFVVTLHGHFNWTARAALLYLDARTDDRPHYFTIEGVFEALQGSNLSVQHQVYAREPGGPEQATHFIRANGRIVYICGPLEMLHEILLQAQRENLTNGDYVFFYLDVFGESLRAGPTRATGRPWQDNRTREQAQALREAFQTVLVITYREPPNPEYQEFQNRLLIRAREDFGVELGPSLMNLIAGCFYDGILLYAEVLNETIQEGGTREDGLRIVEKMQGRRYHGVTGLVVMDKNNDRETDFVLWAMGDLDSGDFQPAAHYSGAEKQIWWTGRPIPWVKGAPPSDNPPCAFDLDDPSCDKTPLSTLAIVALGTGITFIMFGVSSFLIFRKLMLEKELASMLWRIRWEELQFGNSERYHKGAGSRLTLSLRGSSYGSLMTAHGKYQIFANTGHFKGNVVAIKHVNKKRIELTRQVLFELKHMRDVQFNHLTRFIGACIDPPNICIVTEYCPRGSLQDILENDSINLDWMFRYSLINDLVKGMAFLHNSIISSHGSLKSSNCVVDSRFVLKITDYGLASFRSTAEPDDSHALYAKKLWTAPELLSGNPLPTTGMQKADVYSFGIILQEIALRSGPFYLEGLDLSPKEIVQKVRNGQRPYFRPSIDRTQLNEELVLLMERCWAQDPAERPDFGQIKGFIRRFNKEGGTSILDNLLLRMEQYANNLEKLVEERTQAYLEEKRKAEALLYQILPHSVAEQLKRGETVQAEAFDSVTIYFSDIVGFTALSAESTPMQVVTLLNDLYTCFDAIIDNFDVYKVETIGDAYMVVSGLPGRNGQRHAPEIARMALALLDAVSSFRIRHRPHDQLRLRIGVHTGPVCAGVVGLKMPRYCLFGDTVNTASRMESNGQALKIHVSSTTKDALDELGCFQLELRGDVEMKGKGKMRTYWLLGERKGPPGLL
Experiment: NPR-B induced production of cyclic GMP in human glaucoma trabecular meshwork cells (GTM-3)
Type: cell-based

[1] = group by EC50 and Emax (CNP = 100%), Table 4, read-out: Activity (group), NPR-B activation assayed with GTM-3 cells

Structure (SMILES) | EC50 [1] [µM] | EC50 [µM]
CCCCCCCC(=O)N[C@H](C)C(=O)N[C@@H](Cc1ccc(Cl)cc1)C(=O)N[C@H](CC(C)C)C(=O)N[C@@H](CC(C)C)C(=O)N1C[C@H](O)C[C@H]1C(=O)N(C)[C@@H](CC(C)C)C(=O)N[C@@H](CC(=O)O)C(=O)N[C@@H](CCCNC(=N)N)C(=O)N[C@H](C(N)=O)[C@@H](C)CC [JAL-1043, Occ-ala-Pcf-leu-Leu-Hyp-Nml-Asp-Arg-Ile-NH2] (HELM PEPTIDE1{[CCCCCCCC(=O)[*:2]].[dA].[O=C([C@H](Cc1ccc(Cl)cc1)N[*:1])[*:2]].[dL].L.[Hyp].[meL].D.R.I.[am]}$$$$V2.0) | < 1 | –
CCCCCCCC(=O)N1CCC[C@H](C(=O)N[C@@H](Cc2ccccc2)C(=O)N[C@H](CC(C)C)C(=O)N[C@@H](CC(C)C)C(=O)N2C[C@H](NC(=O)CN)C[C@H]2C(=O)N(C)[C@@H](CC(C)C)C(=O)N[C@@H](CC(=O)O)C(=O)N[C@@H](CCCNC(=N)N)C(=O)N[C@H](C(N)=O)[C@@H](C)CC)C1 [JAL-1322, Occ-Sni-Phe-leu-Leu-Tap(G)-Nml-Asp-Arg-Ile-NH2] (Octanoyl-[X2]F[dL]L[X14][NMeL]DRI-NH2) | < 1 | –
CCCCCCCC(=O)OC(C)C(=O)N[C@@H](Cc1ccccc1)C(=O)N[C@H](CC(C)C)C(=O)N[C@@H](CC(C)C)C(=O)N1C[C@H](O)C[C@H]1C(=O)N(C)[C@@H](CC(C)C)C(=O)N[C@@H](CC(=O)O)C(=O)N[C@@H](CCCNC(=N)N)C(=O)N[C@H](C(N)=O)[C@@H](C)CC (stereo partly drawn) [JAL-1294, (AR-201-49)-Phe-leu-Leu-Hyp-Nml-Asp-Arg-Ile-NH2] (HELM PEPTIDE1{[CCCCCCCC(=O)[*:2]].[CC(O[*:1])C(=O)[*:2]].F.[dL].L.[Hyp].[meL].D.R.I.[am]}$$$$V2.0) | < 1 | –
CCCCCCCC(=O)N[C@H](C)C(=O)N(C)[C@@H](Cc1ccccc1)C(=O)N[C@H](CC(C)C)C(=O)N[C@@H](CC(C)C)C(=O)N1C[C@H](O)C[C@H]1C(=O)N(C)[C@@H](CC(C)C)C(=O)N[C@@H](CC(=O)O)C(=O)N[C@@H](CCCNC(=N)N)C(=O)N[C@H](C(N)=O)[C@@H](C)CC [JAL-1267, Occ-ala-Nmf-leu-Leu-Hyp-Nml-Asp-Arg-Ile-NH2] (HELM PEPTIDE1{[CCCCCCCC(=O)[*:2]].[dA].[meF].[dL].L.[Hyp].[meL].D.R.I.[am]}$$$$V2.0) | < 1 | –
CCCCCCCC(=O)N[C@H](C)C(=O)N[C@@H](Cc1ccccc1)C(=O)N[C@H](CC(C)C)C(=O)N[C@@H](CC(C)C)C(=O)N1C[C@H](O)C[C@H]1C(=O)N(C)[C@@H](CC(C)C)C(=O)N[C@@H](CC(=O)O)C(=O)N[C@@H](CCCNC(=N)N)C(=O)NC(CC)(CC)C(N)=O [JAL-1416, Occ-ala-Phe-leu-Leu-Hyp-Nml-Asp-Arg-Deg-NH2] (HELM PEPTIDE1{[CCCCCCCC(=O)[*:2]].[dA].F.[dL].L.[Hyp].[meL].D.R.[CCC(CC)(N[*:1])C(=O)[*:2]].[am]}$$$$V2.0) | < 1 | –
CCCCCCCC(=O)N1CCC[C@H](C(=O)N[C@@H](Cc2ccccc2)C(=O)N[C@H](CCCN)C(=O)N[C@@H](CC(C)C)C(=O)N2C[C@H](N)C[C@H]2C(=O)N(C)[C@@H](CC(C)C)C(=O)N[C@@H](CC(=O)O)C(=O)N[C@@H](CCCNC(=N)N)C(=O)N[C@H](C(N)=O)[C@@H](C)CC)C1 [JAL-1318, Occ-Sni-Phe-orn-Leu-Tap-Nml-Asp-Arg-Ile-NH2] (Octanoyl-[X2]F[dOrn]L[Pro(4R-NH2)][NMeL]DRI-NH2) | < 1 | –
CCCCCCCC(=O)N1CCCC[C@@H]1C(=O)N(C)[C@@H](Cc1ccccc1)C(=O)N[C@H](CCCNC(=N)N)C(=O)N[C@@H](CC(C)C)C(=O)N1CCC[C@H]1C(=O)N(C)[C@@H](CC(C)C)C(=O)N[C@@H](CC(=O)O)C(=O)N[C@@H](CCCNC(=N)N)C(=O)N[C@H](C(N)=O)[C@@H](C)CC [JAL-1077, Occ-pip-Nmf-arg-Leu-Pro-Nml-Asp-Arg-Ile-NH2] (HELM PEPTIDE1{[CCCCCCCC(=O)[*:2]].[O=C([C@H]1CCCCN1[*:1])[*:2]].[meF].[dR].L.P.[meL].D.R.I.[am]}$$$$V2.0) | < 1 | –
CCCCCCCCN1CCC[C@H](C(=O)N[C@@H](Cc2ccccc2)C(=O)N[C@H](CC(C)C)C(=O)N[C@@H](CC(C)C)C(=O)N2C[C@H](N)C[C@H]2C(=O)N(C)[C@@H](CC(C)C)C(=O)N[C@@H](CC(=O)O)C(=O)N[C@@H](CCCNC(=N)N)C(=O)N[C@H](C(N)=O)[C@@H](C)CC)C1 [JAL-1326, Oct-Sni-Phe-leu-Leu-Tap-Nml-Asp-Arg-Ile-NH2] (HELM PEPTIDE1{[CCCCCCCCN1CCC[C@H](C(=O)[*:2])C1].F.[dL].L.[N[C@@H]1C[C@@H](C(=O)[*:2])N([*:1])C1].[meL].D.R.I.[am]}$$$$V2.0) | < 1 | –
CCCCCCCC(=O)N[C@H](C)C(=O)N[C@@H](Cc1ccccc1)C(=O)N[C@H](CC(C)C)C(=O)N[C@@H](CC(C)C)C(=O)N1C[C@H](O)C[C@H]1C(=O)N[C@@H](CN(C)C)C(=O)N[C@@H](CC(=O)O)C(=O)N[C@@H](CCCNC(=N)N)C(=O)N[C@H](C(N)=O)[C@@H](C)CC [JAL-1367, Occ-ala-Phe-leu-Leu-Hyp-Dap(Me2)-Asp-Arg-Ile-NH2] (HELM PEPTIDE1{[CCCCCCCC(=O)[*:2]].[dA].F.[dL].L.[Hyp].[CN(C)C[C@H](N[*:1])C(=O)[*:2]].D.R.I.[am]}$$$$V2.0) | < 1 | –
CCCCCCCC(=O)N1CCC[C@H](C(=O)N[C@@H](Cc2ccccc2)C(=O)NCC(=O)N[C@@H](CC(C)C)C(=O)N2C[C@H](N)C[C@H]2C(=O)N(C)[C@@H](CC(C)C)C(=O)N[C@@H](CC(=O)O)C(=O)N[C@@H](CCCNC(=N)N)C(=O)N[C@H](C(N)=O)[C@@H](C)CC)C1 [JAL-1320, Occ-Sni-Phe-Gly-Leu-Tap-Nml-Asp-Arg-Ile-NH2] (Octanoyl-[X2]FGL[Pro(4R-NH2)][NMeL]DRI-NH2) | – | < 1

Now from value to compound, other results behind:

EC50 [1] [µM] | Structure (SMILES) | EC50 [µM]
< 1 | CCCCCCCC(=O)N1CCC[C@H](C(=O)N[C@@H](Cc2ccccc2)C(=O)N[C@H](CC(C)C)C(=O)N[C@@H](CC(C)C)C(=O)N2C[C@H](O)C[C@H]2C(=O)N(C)[C@@H](CC(C)C)C(=O)N[C@@H](CC(=O)O)C(=O)N2CC[C@@H](N)[C@H]2C(=O)NC2CCCCCC2)C1 [JAL-1679, Occ-Sni-Phe-leu-Leu-Hyp-Nml-Asp-Pca-Che] (Octanoyl-[X2]F[dL]L[Hyp][NMeL]D[X7]-NHcycloheptyl) | –
< 1 | CCCCCCCC(=O)N[C@H](C)C(=O)N[C@@H](Cc1ccccc1)C(=O)NC1(C(=O)N[C@@H](CC(C)C)C(=O)N2C[C@H](N)C[C@H]2C(=O)N(C)[C@@H](CC(C)C)C(=O)N[C@@H](CC(=O)O)C(=O)N2CCC[C@H]2C(=O)N[C@H](C(N)=O)[C@@H](C)CC)CCNCC1 [JAL-1452, Occ-ala-Phe-Apc-Leu-Tap-Nml-Asp-Pro-Ile-NH2] (Octanoyl-[dA]F[Api]L[Pro(4R-NH2)][NMeL]DPI-NH2) | –
< 1 | CCCCCCCC(=O)N1CCC[C@H](C(=O)N[C@@H](Cc2ccccc2)C(=O)N[C@H](CCCN(C)C)C(=O)N[C@@H](CC(C)C)C(=O)N2C[C@H](O)C[C@H]2C(=O)N(C)[C@@H](CC(C)C)C(=O)N[C@H](C(=O)N[C@@H](CCCNC(=N)N)C(=O)NC2CCCCCC2)[C@@H](C)O)C1 [JAL-1895, Occ-Sni-Phe-orn(Me2)-Leu-Hyp-Nml-Thr-Arg-Che] (Octanoyl-[X2]F[dOrn(Me2)]L[Hyp][NMeL]TR-NHcycloheptyl) | –
< 1 | CCCCCCCC(=O)N1CCC[C@H](C(=O)N[C@@H](Cc2ccccc2)C(=O)N[C@H](CCN(C)C)C(=O)N[C@@H](CC(C)C)C(=O)N2C[C@H](O)C[C@H]2C(=O)N(C)[C@@H](CC(C)C)C(=O)N[C@H](C(=O)N[C@@H](CCCNC(=N)N)C(=O)NC2CCCCCC2)C(C)C)C1 [JAL-1784, Occ-Sni-Phe-dab(Me2)-Leu-Hyp-Nml-Val-Arg-Che] (Octanoyl-[X2]F[X9]L[Hyp][NMeL]VR-NHcycloheptyl) | –
< 1 | CCCCCCCC(=O)N1CCC[C@H](C(=O)N(C)[C@@H](Cc2ccccc2)C(=O)N[C@H](CC(C)C)C(=O)N[C@@H](CC(C)C)C(=O)N2C[C@H](O)C[C@H]2C(=O)N(C)[C@@H](CC(C)C)C(=O)N[C@@H](CC(=O)O)C(=O)N[C@@H](CCCNC(=N)N)C(=O)N[C@H](C(N)=O)[C@@H](C)CC)C1 [JAL-1573, Occ-Sni-Nmf-leu-Leu-Hyp-Nml-Asp-Arg-Ile-NH2] (HELM PEPTIDE1{[CCCCCCCC(=O)[*:2]].[O=C([C@H]1CCCN([*:1])C1)[*:2]].[meF].[dL].L.[Hyp].[meL].D.R.I.[am]}$$$$V2.0) | –
< 1 | CCCCCCCC(=O)N1CCC[C@H](C(=O)N[C@@H](Cc2ccc(F)cc2)C(=O)N[C@H](CC(C)C)C(=O)N[C@@H](CC(C)C)C(=O)N2C[C@H](O)C[C@H]2C(=O)N(C)[C@@H](CC(C)C)C(=O)N[C@@H](CC(=O)O)C(=O)N[C@@H](CCCNC(=N)N)C(=O)N[C@H](C(N)=O)[C@@H](C)CC)C1 [JAL-1487, Occ-Sni-Pff-leu-Leu-Hyp-Nml-Asp-Arg-Ile-NH2] (Octanoyl-[X2][Phe(4-F)][dL]L[Hyp][NMeL]DRI-NH2) | –

— patent US9822147B2, “Methods of treating ophthalmic diseases using NPR-B agonists” (priority 2009, dated 2017)
